≈ marks a conversion by molar mass, not a printed value. Where two headings read alike, the source gives them in different places.
Columns and labels:
Type in all cases: cell-based
[1] = LDH cytotoxic activity assay, HeLa; details: human, HeLa cells
Procedure, shortened: (§1)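 LDH release, A492–630 nm; ~5 × 10^3 cells/well, triplicate; cpd 25/50/75/100 μg/mL, 24 h, 37 °C, 5% CO2; DMEM or RPMI 1640 + 10% FBS.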

[2] = LDH cytotoxic activity assay, HT29; details: human, HT29 cells
Procedure, shortened: as §1

in vitro = details: human, LC50
Procedure, shortened: (§2)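 Proliferation was measured with the MTT method on cells grown in serum-supplemented DMEM or RPMI 1640 and seeded near 1 × 10^4 per well. Growth parameters GI50, TGI and LC50 were computed from absorbances at time zero, in control growth and under drug.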

normal FL cells = assay: cells; details: FL normal cells, MTT
Procedure, shortened: as §2

[3] = LDH cytotoxic activity assay, C6; details: rat, C6 glioma cells
Procedure, shortened: as §1

MCF7 = assay: cells; details: Homo sapiens
Procedure, shortened: as §2

HeLa = assay: cells; details: Homo sapiens
Procedure, shortened: as §2

A549 = assay: cells; details: Homo sapiens
Procedure, shortened: as §2

Hep3B = assay: cells; details: Homo sapiens
Procedure, shortened: as §2

C6 (Rat brain glioma) = assay: cells; details: Rattus norvegicus
Procedure, shortened: as §2

HT29 = assay: cells; details: Homo sapiens
Procedure, shortened: as §2

E. coli ATCC 25922 = assay: Microdilution MIC assay; details: Escherichia coli, ATCC25922; E. coli ATCC 25922, 24 h at 35 °C
Procedure, shortened: (§3)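 MICs come from a microwell dilution format incubated for 24 h at 35 °C, with the endpoint being the lowest concentration that prevented visible growth.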

S. aureus ATCC 25923 = assay: Microdilution MIC assay; details: S. aureus ATCC 25923, 24 h at 35 °C
Procedure, shortened: as §3

E. coli ESBL ATCC 35218 = assay: Microdilution MIC assay; details: Escherichia coli, ATCC35218; E. coli ESBL ATCC 35218, 24 h at 35 °C
Procedure, shortened: as §3

[4] = test system: S. aureus MRSA ATCC 46300; assay: Microdilution MIC assay; details: S. aureus MRSA ATCC 46300, 24 h at 35 °C
Procedure, shortened: as §3

[5] = test system: E. faecalis VRE ATCC 19433; assay: Microdilution MIC assay; details: Enterococcus faecalis; E. faecalis VRE ATCC 19433, 24 h at 35 °C
Procedure, shortened: as §3

S. gordonii NCTC 7870 = assay: Microdilution MIC assay; details: Streptococcus gordonii, NCTC7870; S. gordonii NCTC 7870, 24 h at 35 °C
Procedure, shortened: as §3

`Cc1ccc(-c2cc(-c3cccnc3)nc(N[C@@H]3O[C@H](CO)[C@@H](O)[C@H](O)[C@H]3O)n2)cc1` [Compound 8, N-[4-(4-methylphenyl)-6-pyridin-3-ylpyrimidin-2-yl]-β-D-glucopyranosylamine] showed a cytotoxicity at 24 h, 25 μg/mL ([1]; 25 μg/mL) of 12.5%, a cytotoxicity at 24 h, 50 μg/mL ([1]; 50 μg/mL) of 35% and a cytotoxicity at 24 h, 75 μg/mL ([1]; 75 μg/mL) of 42%. The cytotoxicity at 24 h, 100 μg/mL ([1]; 100 μg/mL) was 49%, the cytotoxicity at 24 h, 25 μg/mL ([2]; HT29, 25 μg/mL) was 20.6% and the cytotoxicity at 24 h, 50 μg/mL ([2]; HT29, 50 μg/mL) was 34.5%. The cytotoxicity at 24 h, 75 μg/mL ([2]; HT29, 75 μg/mL) was 75.8%, the cytotoxicity at 24 h, 100 μg/mL ([2]; HT29, 100 μg/mL) was 95.9% and the LC50 (concentration causing 50% net cell loss) (in vitro) was over 500 µg/mL. For the same compound, the GI50 (normal FL cells) was 5.64 µg/mL (≈ 13.3 µM), the IC50 (normal FL cells; read-out: IC50) was over 500 µg/mL and the IC (total growth inhibition) (normal FL cells; read-out: TGI) was over 500 µg/mL. For the same compound, the cytotoxicity at 24 h, 25 μg/mL ([3]; C6, 25 μg/mL) was 28.4%, the cytotoxicity at 24 h, 50 μg/mL ([3]; C6, 50 μg/mL) was 45.4% and the cytotoxicity at 24 h, 75 μg/mL ([3]; C6, 75 μg/mL) was 63.2%. It also gave a cytotoxicity at 24 h, 100 μg/mL ([3]; C6, 100 μg/mL) of 88.7%, an LC50 (concentration causing 50% net cell loss relative to time zero) (MCF7; MCF7, read-out: LC50) of over 500 µg/mL and a GI50 (MCF7; MCF7, MTT) of 1.7 µg/mL (≈ 4.01 µM). It also gave an IC50 (MCF7; MCF7, MTT, read-out: IC50) of over 500 µg/mL, an IC (total growth inhibition) (MCF7; MCF7, MTT, read-out: TGI) of over 500 µg/mL and a GI50 (HeLa; MTT) of 14.1 µg/mL (≈ 33.2 µM). For the same compound, the IC50 (HeLa; MTT, read-out: IC50) was 81.3 µg/mL (≈ 191 µM), the IC (total growth inhibition) (HeLa; MTT, read-out: TGI) was 50.1 µg/mL and the LC50 (concentration causing 50% net cell loss) (HeLa; read-out: LC50) was 325 µg/mL (≈ 766 µM). The LC50 (concentration causing 50% net cell loss) (A549; A549, read-out: LC50) was over 500 µg/mL, the GI50 (A549; A549, MTT) was over 500 µg/mL and the IC50 (A549; A549, MTT, read-out: IC50) was over 500 µg/mL. For the same compound, the IC (total growth inhibition) (A549; A549, MTT, read-out: TGI) was over 500 µg/mL, the GI50 (Hep3B; MTT) was 6.38 µg/mL (≈ 15 µM) and the IC50 (Hep3B; MTT, read-out: IC50) was over 500 µg/mL. It also gave an IC (total growth inhibition) (Hep3B; MTT, read-out: TGI) of over 500 µg/mL, an LC50 (concentration causing 50% net cell loss relative to time zero) (Hep3B; read-out: LC50) of over 500 µg/mL and an LC50 (concentration giving 50% net cell loss relative to time zero) (C6 (Rat brain glioma); read-out: LC50) of 225 µg/mL (≈ 530 µM). For the same compound, the GI50 (C6 (Rat brain glioma); C6, MTT) was 8.71 µg/mL (≈ 20.5 µM), the IC50 (C6 (Rat brain glioma); C6, MTT, read-out: IC50) was 49 µg/mL (≈ 115 µM) and the IC (total growth inhibition) (C6 (Rat brain glioma); C6, MTT, read-out: TGI) was 30.7 µg/mL. It also gave an LC50 (concentration giving 50% net cell loss relative to time zero) (HT29; HT-29, read-out: LC50) of over 500 µg/mL, a GI50 (HT29; HT-29, HT29, MTT) of 4.43 µg/mL (≈ 10.4 µM) and an IC50 (HT29; HT-29, HT29, MTT, read-out: IC50) of 42.5 µg/mL (≈ 100 µM). For the same compound, the IC (total growth inhibition) (HT29; HT-29, HT29, MTT, read-out: TGI) was 60 µg/mL, the MIC (E. coli ATCC 25922) was 1000 µg/mL (≈ 2360 µM) and the MIC (S. aureus ATCC 25923) was 15.62 µg/mL (≈ 36.8 µM). The MIC (S. aureus ATCC 25923; Staphylococcus aureus, ATCC25923, 24 h, read-out: MIC) was 15.6 to 125 µg/mL (≈ 36.8 to 294 µM), the MIC (E. coli ESBL ATCC 35218) was over 1000 µg/mL and the MIC [4] was under 7.81 µg/mL. The MIC ([4]; Staphylococcus aureus, read-out: MIC) was under 7.81 µg/mL, the MIC [5] was 500 µg/mL (≈ 1180 µM) and the MIC (S. gordonii NCTC 7870) was 250 µg/mL (≈ 589 µM).

— article PMC10387993, “New pyrimidine-N-β-D-glucosides: synthesis, biological evaluation, and molecular docking investigations” (Turkish Journal of Chemistry, 2023)
